Data published in the supplement of paper PMC11451515.

Tests used:
Details in all cases: 48 h
NOMO1 [1] = experiment: cell viability relative to DMSO control; higher = less cytotoxic
In short: (§1)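 Viability is expressed as a percentage of DMSO wells within each plate, and cell-free wells serve as background. Seeding densities in the 1536-well plates (5 μl) were 500 cells/well for NOMO1 or SEM leukemia cells and 1000 cells/well for P12-Ichikawa. Each line was adapted for at least four passages in each medium. Library compounds in DMSO were pin-dosed at 47 μM to 0.79 nM (11 points, threefold), and CellTiter-Glo One luminescence was read after 48 h at 37°C.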

P12-Ichikawa [2] = experiment: as above
In short: as §1

SEM cells [3] = experiment: as above
In short: as §1

NOMO1 [4] = experiment: AUC of viability dose-response curve (% viability x log10 dose units); higher = less sensitive
In short: (§2)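 Leukemia cells adapted to each medium were seeded in 1536-well plates (500 or 1000 cells/well) and given library compounds in DMSO for 48 h at 37°C. The 11 threefold doses spanned 47 μM to 0.79 nM, and CellTiter-Glo One luminescence was normalised per plate to DMSO and cell-free wells before four-parameter log-logistic fitting on log10 dose. Area under the curve was integrated with the trapezoidal rule, scaling curves above full viability and removing curves that failed quality control.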

P12-Ichikawa [5] = experiment: as above
In short: as §2

SEM cells [6] = experiment: as above
In short: as §2

NC(=O)c1cccc2cn(-c3ccc([C@@H]4CCCNC4)cc3)nc12
cell viability [%]
Details | NOMO1 [1] | P12-Ichikawa [2] | SEM cells [3]
HPLM + 10% dialyzed FBS, 0.000781 µM | 90.2 | 90.3 | 86.9
HPLM + 10% dialyzed FBS, 0.00234 µM | 97.4 | 94.4 | 90.8
HPLM + 10% dialyzed FBS, 0.00702 µM | 114 | 103 | 105
HPLM + 10% dialyzed FBS, 0.0211 µM | 103 | 104 | 126
HPLM + 10% dialyzed FBS, 0.0632 µM | 118 | 110 | 129
HPLM + 10% dialyzed FBS, 0.19 µM | 122 | 105 | 98.9
HPLM + 10% dialyzed FBS, 0.569 µM | 114 | 108 | 112
HPLM + 10% dialyzed FBS, 1.71 µM | 111 | 106 | 116
HPLM + 10% dialyzed FBS, 5.12 µM | 98.2 | 101 | 91.8
HPLM + 10% dialyzed FBS, 15.4 µM | 117 | 86.9 | 63.8
HPLM + 10% dialyzed FBS, 46.1 µM | 69 | 33.8 | 50
RPMI 5 mM glucose + 10% FBS, 0.000781 µM | 83.5 | 83.9 | 97.8
RPMI 5 mM glucose + 10% FBS, 0.00234 µM | 82.2 | 90.4 | 111
RPMI 5 mM glucose + 10% FBS, 0.00702 µM | 100 | 96.8 | 113
RPMI 5 mM glucose + 10% FBS, 0.0211 µM | 102 | 100 | 110
RPMI 5 mM glucose + 10% FBS, 0.0632 µM | 93.8 | 103 | 102
RPMI 5 mM glucose + 10% FBS, 0.19 µM | 97.1 | 105 | 92.8
RPMI 5 mM glucose + 10% FBS, 0.569 µM | 91.5 | 101 | 119
RPMI 5 mM glucose + 10% FBS, 1.71 µM | 106 | 102 | 113
RPMI 5 mM glucose + 10% FBS, 5.12 µM | 103 | 103 | 120
RPMI 5 mM glucose + 10% FBS, 15.4 µM | 105 | 75.5 | 80.1
RPMI 5 mM glucose + 10% FBS, 46.1 µM | 82.2 | 24.5 | 32.5
RPMI 5 mM glucose + 10% dialyzed FBS, 0.000781 µM | 83.8 | 94.1 | 94.3
RPMI 5 mM glucose + 10% dialyzed FBS, 0.00234 µM | 111 | 98.6 | 80.8
RPMI 5 mM glucose + 10% dialyzed FBS, 0.00702 µM | 108 | 103 | 93.4
RPMI 5 mM glucose + 10% dialyzed FBS, 0.0211 µM | 111 | 105 | 106
RPMI 5 mM glucose + 10% dialyzed FBS, 0.0632 µM | 108 | 108 | 104
RPMI 5 mM glucose + 10% dialyzed FBS, 0.19 µM | 122 | 113 | 90
RPMI 5 mM glucose + 10% dialyzed FBS, 0.569 µM | 114 | 103 | 109
RPMI 5 mM glucose + 10% dialyzed FBS, 1.71 µM | 102 | 106 | 124
RPMI 5 mM glucose + 10% dialyzed FBS, 5.12 µM | 110 | 101 | 94.6
RPMI 5 mM glucose + 10% dialyzed FBS, 15.4 µM | 118 | 88.4 | 66.4
RPMI 5 mM glucose + 10% dialyzed FBS, 46.1 µM | 98.8 | 55.5 | 44.4

AUC of viability dose-response curve
Details | NOMO1 [4] | P12-Ichikawa [5] | SEM cells [6]
HPLM + 10% dialyzed FBS | 468 | 453 | 438
RPMI 5 mM glucose + 10% FBS | 456 | 441 | 448
RPMI 5 mM glucose + 10% dialyzed FBS | 470 | 458 | 446

Cc1cc(C(=O)N2CCN(c3cccc(Cl)c3)CC2)n(-c2ccccc2)n1
cell viability [%]
Details | NOMO1 [1] | P12-Ichikawa [2] | SEM cells [3]
HPLM + 10% dialyzed FBS, 0.000781 µM | 116 | 109 | 109
HPLM + 10% dialyzed FBS, 0.00234 µM | 115 | 107 | 96.7
HPLM + 10% dialyzed FBS, 0.00702 µM | 114 | 103 | 102
HPLM + 10% dialyzed FBS, 0.0211 µM | 97.7 | 107 | 102
HPLM + 10% dialyzed FBS, 0.0632 µM | 115 | 103 | 109
HPLM + 10% dialyzed FBS, 0.19 µM | 116 | 103 | 96
HPLM + 10% dialyzed FBS, 0.569 µM | 91.8 | 105 | 92.5
HPLM + 10% dialyzed FBS, 1.71 µM | 70.7 | 50.2 | 52.6
HPLM + 10% dialyzed FBS, 5.12 µM | 30.7 | 23.9 | 25.5
HPLM + 10% dialyzed FBS, 15.4 µM | 26.5 | 10.1 | 21.7
HPLM + 10% dialyzed FBS, 46.1 µM | 29.3 | 12.5 | 18.2
RPMI 5 mM glucose + 10% FBS, 0.000781 µM | 90.3 | 105 | 107
RPMI 5 mM glucose + 10% FBS, 0.00234 µM | 99.9 | 113 | 118
RPMI 5 mM glucose + 10% FBS, 0.00702 µM | 96.1 | 102 | 116
RPMI 5 mM glucose + 10% FBS, 0.0211 µM | 97.5 | 105 | 122
RPMI 5 mM glucose + 10% FBS, 0.0632 µM | 94.5 | 101 | 107
RPMI 5 mM glucose + 10% FBS, 0.19 µM | 99.7 | 90.2 | 110
RPMI 5 mM glucose + 10% FBS, 0.569 µM | 99.6 | 101 | 120
RPMI 5 mM glucose + 10% FBS, 1.71 µM | 92.2 | 80.5 | 81.5
RPMI 5 mM glucose + 10% FBS, 5.12 µM | 69.7 | 36.8 | 34.8
RPMI 5 mM glucose + 10% FBS, 15.4 µM | 15.9 | 10.4 | 17.5
RPMI 5 mM glucose + 10% FBS, 46.1 µM | 14.8 | 16.6 | 15.6
RPMI 5 mM glucose + 10% dialyzed FBS, 0.000781 µM | 98 | 101 | 105
RPMI 5 mM glucose + 10% dialyzed FBS, 0.00234 µM | 100 | 92.8 | 103
RPMI 5 mM glucose + 10% dialyzed FBS, 0.00702 µM | 96.6 | 105 | 112
RPMI 5 mM glucose + 10% dialyzed FBS, 0.0211 µM | 90.7 | 104 | 89.4
RPMI 5 mM glucose + 10% dialyzed FBS, 0.0632 µM | 89.7 | 103 | 114
RPMI 5 mM glucose + 10% dialyzed FBS, 0.19 µM | 109 | 91.2 | 100
RPMI 5 mM glucose + 10% dialyzed FBS, 0.569 µM | 90.5 | 95.5 | 93.3
RPMI 5 mM glucose + 10% dialyzed FBS, 1.71 µM | 85.9 | 70.1 | 61.1
RPMI 5 mM glucose + 10% dialyzed FBS, 5.12 µM | 38.3 | 40.9 | 24.4
RPMI 5 mM glucose + 10% dialyzed FBS, 15.4 µM | 22 | 20.5 | 19.5
RPMI 5 mM glucose + 10% dialyzed FBS, 46.1 µM | 24.1 | 20.4 | 18.3

AUC of viability dose-response curve
Details | NOMO1 [4] | P12-Ichikawa [5] | SEM cells [6]
HPLM + 10% dialyzed FBS | 364 | 349 | 354
RPMI 5 mM glucose + 10% FBS | 389 | 373 | 368
RPMI 5 mM glucose + 10% dialyzed FBS | 375 | 374 | 357
